Reference: publication PMC5123592 (Nature chemistry, 2016)

Experiments:
ZMPSTE24 [1] = molecular target: T1, ZMPSTE24 (Homo sapiens, UniProt O75844); experiment: native mass spectrometry titration; format: binding
T1 sequence (O75844 1-475): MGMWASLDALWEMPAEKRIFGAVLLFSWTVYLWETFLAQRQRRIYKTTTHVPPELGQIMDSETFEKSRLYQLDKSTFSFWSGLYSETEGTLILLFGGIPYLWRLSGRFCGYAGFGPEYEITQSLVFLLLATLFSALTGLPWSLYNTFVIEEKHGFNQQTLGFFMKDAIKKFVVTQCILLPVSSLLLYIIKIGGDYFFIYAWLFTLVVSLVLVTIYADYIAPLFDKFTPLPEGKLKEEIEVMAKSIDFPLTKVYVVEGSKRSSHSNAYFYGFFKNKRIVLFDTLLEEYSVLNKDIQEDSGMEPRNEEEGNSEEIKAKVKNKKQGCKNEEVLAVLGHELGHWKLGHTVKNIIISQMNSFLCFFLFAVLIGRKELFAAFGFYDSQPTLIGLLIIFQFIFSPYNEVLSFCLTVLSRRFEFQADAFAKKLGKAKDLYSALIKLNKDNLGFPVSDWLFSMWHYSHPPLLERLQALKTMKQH

ZMPSTE24 [2] = molecular target: T1, ZMPSTE24; experiment: native mass spectrometry; format: binding; conditions: 15 μM drug, equimolar ZMPSTE24, C8E4

Row | Structure (SMILES) | Kd (ZMPSTE24 [1]) [µM] | binding observed at 15 μM (ZMPSTE24 [2])
1 | Cc1cccc(C)c1OCC(=O)N[C@@H](Cc1ccccc1)[C@@H](O)C[C@H](Cc1ccccc1)NC(=O)[C@H](C(C)C)N1CCCNC1=O [lopinavir] | 25 ± 1.2 | 
2 | CC(C)CN(C[C@@H](O)[C@H](Cc1ccccc1)NC(=O)O[C@H]1CCOC1)S(=O)(=O)c1ccc(N)cc1 [amprenavir] |  | binding of amprenavir and ritonavir were observed, albeit in lower amounts
